In PubChem BioAssay (NCI):
Several values for one entry are separate records, joined by “and”; a condition that tells them apart may be missing. Equal entries are not always repeated.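 Each compound was tested at five concentrations against cells in 96-well plates for 48 hours. At the GI50, growth is halved. TGI: total growth inhibition.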

How the values were obtained:
Experiment in all cases: inhibition of tumour cell growth, NCI panel, 48 h
A498 renal = test system: A498 renal
CCRF-CEM leukemia = test system: CCRF-CEM leukemia
COLO 205 colon = test system: COLO 205 colon
EKVX NSCLC = test system: EKVX NSCLC
HCC-2998 colon = test system: HCC-2998 colon
HCT-15 colon = test system: HCT-15 colon
HT29 colon = test system: HT29 colon
MDA-MB-231 breast = test system: MDA-MB-231 breast
NCI-H522 lung = test system: NCI-H522 lung
U251 CNS = test system: U251 CNS

| Structure (SMILES) | GI50 (A498 renal) [µM] | TGI (A498 renal) [µM] | GI50 (CCRF-CEM leukemia) | TGI (CCRF-CEM leukemia) | GI50 (COLO 205 colon) [µM] | TGI (COLO 205 colon) [µM] | GI50 (EKVX NSCLC) | TGI (EKVX NSCLC) | GI50 (HCC-2998 colon) | TGI (HCC-2998 colon) | GI50 (HCT-15 colon) | TGI (HCT-15 colon) | GI50 (HT29 colon) | TGI (HT29 colon) | GI50 (MDA-MB-231 breast) | TGI (MDA-MB-231 breast) | GI50 (NCI-H522 lung) | TGI (NCI-H522 lung) | GI50 (U251 CNS) | TGI (U251 CNS) |
| --- | --- | --- | --- | --- | --- | --- | --- | --- | --- | --- | --- | --- | --- | --- | --- | --- | --- | --- | --- | --- |
| COC(=O)[C@]12CC[C@@H](C)[C@H](C)[C@@H]1C1=CC[C@@H]3[C@@]4(C)C(c5ncon5)=C[C@@](C)(CO)C4=CC[C@@]3(C)[C@]1(C)CC2 | 1.69 | 3.42 | 1.89 µM | 4.35 µM | 1.96 | 4.15 | 2.02 µM | 4.37 µM | 2.14 µM | 3.79 µM | 1.91 µM | 4.08 µM | 1.94 µM | 3.88 µM | 2.2 µM | 5.08 µM | 1.71 µM | 3.57 µM | 2.02 µM | 3.84 µM |
| Cn1cc(-c2csc(-c3cn(CCN4CCOCC4)c4ccc(F)cc34)n2)c2cccnc21 | 5.66 | 48.5 | 3.07 µM | 9.18 µM | 2.08 | 5.23 | 2.52 µM | 26.6 µM | 3.42 µM | 16.4 µM | 2.29 µM | 8.09 µM | 2.85 µM | 17.7 µM | 2.51 µM | 8.48 µM | 2.11 µM | 6.63 µM | 3.35 µM | 22.2 µM |
| Cc1cc2nc3ccc(N=Nc4ccc(N(C)C)cc4)cc3n(-c3ccccc3)c-2cc1=N | 0.0308 | 1.09 | 0.00858 µM and 0.0162 µM | 0.203 µM and 0.141 µM | 0.00343 | 0.0216 | 0.023 µM | 0.212 µM | 0.0431 µM | 1.6 µM | 0.0273 µM and 0.177 µM | 0.259 µM and 1.31 µM | 0.0497 µM | 1.15 µM | 0.074 µM | 0.466 µM | 0.0199 µM and 0.147 µM |  | 0.0183 µM | 0.114 µM |
| CSc1nc(Cl)c(Br)c(Nc2c[nH]c(=O)[nH]c2=O)n1 |  | 35.7 |  | 49 µM |  | 32.9 |  | 33.8 µM |  | 42.2 µM |  | 27.6 µM |  | 29.4 µM |  | 30.1 µM |  | 3.88 µM |  | 48.5 µM |
| Cc1cc(N(CCCNc2ccnc3cc(Cl)ccc23)Cc2cccs2)nc(Cl)n1 | 2.16 | 11.7 | 5.57 µM | > 100 µM | 2.24 | 7.8 | 3.72 µM | 27.2 µM | 4.05 µM | 17.8 µM | 2.45 µM | 12.8 µM | 1.51 µM | 12.4 µM | 3.36 µM | 17.3 µM | 2.9 µM | 18.7 µM | 6.75 µM | 22.2 µM |
| COc1ccc2nc(-c3ccccc3)cc(Nc3ccc(/C(C)=N/O)cc3)c2c1 | 2.03 | 4.98 | 3.48 µM | > 100 µM | 4.91 | > 100 | 3.02 µM | > 100 µM | 2.19 µM | 4.94 µM | 13.9 µM | > 63.9 µM | 2.7 µM | > 100 µM | 0.733 µM | 2.07 µM | 14.9 µM | > 24.6 µM | 6.7 µM | > 67.1 µM |
| CCN(CC)c1ccc(/C=C/C(=O)c2cccc(NS(C)(=O)=O)c2)cc1 | 5.39 | > 100 | 3.19 µM | 18.1 µM | 5.28 | > 100 | 5.46 µM | > 100 µM | > 100 µM | > 100 µM | 3.44 µM | > 100 µM | 3.15 µM | > 100 µM | 9.7 µM | > 100 µM | 87.7 µM | > 100 µM | 10.9 µM | > 100 µM |
| CN(C)CCCNC(=O)c1cc2c3ccccc3[nH]c2c2ncccc12 | 14.8 | 31.7 | 4.31 µM | 56.4 µM | 4.43 | 16.6 | 15.3 µM | 85.4 µM | 10.8 µM | 23.4 µM | 11.6 µM | 58.5 µM | 10.3 µM | 50.4 µM | 14.4 µM | 74.9 µM | 14.5 µM | 37.7 µM | 16.7 µM | 70 µM |
| CC(C)[C@@H](C(=O)O[C@@H]1/C=C/C(=O)O[C@@H](C)CCC/C=C/[C@@H]2C[C@H](O)C[C@H]21)[N+](C)(C)C | > 100 | > 100 | > 100 µM | > 100 µM | > 100 | > 100 | > 100 µM | > 100 µM | > 100 µM | > 100 µM | > 100 µM | > 100 µM | > 100 µM | > 100 µM | > 100 µM | > 100 µM | > 100 µM | > 100 µM | > 100 µM | > 100 µM |
| COc1ccc(C(=O)Nc2ncc(Cc3ccc(F)cc3)s2)cc1 | 0.0204 | 0.0898 | 0.0446 µM | > 100 µM | 0.0584 |  | 0.383 µM | > 100 µM | 0.163 µM | 2.49 µM | 0.0429 µM | > 100 µM | 0.0438 µM | > 100 µM | 0.2 µM | 76.6 µM | 0.0874 µM | > 100 µM | 0.0686 µM | > 89.1 µM |
| CC(=O)NNC(=O)c1nn(-c2ccc(Cl)cc2)cc1OC(C)=O | 22.2 | 91.7 | 10.2 µM | > 100 µM | 39.1 | > 100 | 23.7 µM | > 100 µM | 21.4 µM | > 100 µM | 7.23 µM | > 100 µM | 42.4 µM | > 93.4 µM | 23.7 µM | > 87.4 µM | 35.5 µM | > 100 µM | 11.8 µM | > 100 µM |
| COc1ccc(-c2nnc3n(C)c(=O)c4ccccc4n23)cc1O | 6.42 | 36.6 | 1.81 µM | > 100 µM | 3.36 | 21.1 | 14.1 µM | > 100 µM | 2.98 µM | 97.9 µM | 0.153 µM | > 100 µM | 3.94 µM | 43.6 µM | 2.29 µM | 31.7 µM | 0.0827 µM | 1.98 µM | 0.263 µM | 20.8 µM |
| CC1=C[C@H]2c3c(c(O)c(O)c4oc5cc(O)cc(O)c5c(=O)c34)[C@H](c3cc(O)c(O)c4oc5cc(O)cc(O)c5c(=O)c34)[C@H]2C(C)(C)C1 | 1.89 | 4.63 | 0.641 µM | 4.1 µM | 2.65 | 7.33 | 2.67 µM and 2.2 µM | 13.7 µM and 8.53 µM | 1.91 µM and 2.5 µM | 3.78 µM and 10 µM | 2.75 µM and 1.62 µM | 16.4 µM and 14 µM | 1.49 µM and 2.96 µM | 5.74 µM and 12 µM | 1.46 µM and 1.83 µM | 4.01 µM and 5.62 µM | 1.3 µM and 1.34 µM | 3.04 µM and 4.56 µM | 0.789 µM and 1.08 µM | 3.26 µM and 17 µM |
